# Results: ChEMBL document CHEMBL4665688, “Discovery of AB680: A Potent and Selective Inhibitor of CD73” (J Med Chem, 2020)
# Key:
# [1] = target: T1, 5'-nucleotidase (Mus musculus, UniProt Q61503); assay: Inhibition of CD73 in mouse CD8-positive T cells using AMP as substrate preincubated for 60 mins followed by substrate addition and measured after 2.5 hrs by PiColorLock gold reagent based colorimetric assay; type: cell-based, CD8-positive T cell
# T1 sequence (Q61503 whole entry): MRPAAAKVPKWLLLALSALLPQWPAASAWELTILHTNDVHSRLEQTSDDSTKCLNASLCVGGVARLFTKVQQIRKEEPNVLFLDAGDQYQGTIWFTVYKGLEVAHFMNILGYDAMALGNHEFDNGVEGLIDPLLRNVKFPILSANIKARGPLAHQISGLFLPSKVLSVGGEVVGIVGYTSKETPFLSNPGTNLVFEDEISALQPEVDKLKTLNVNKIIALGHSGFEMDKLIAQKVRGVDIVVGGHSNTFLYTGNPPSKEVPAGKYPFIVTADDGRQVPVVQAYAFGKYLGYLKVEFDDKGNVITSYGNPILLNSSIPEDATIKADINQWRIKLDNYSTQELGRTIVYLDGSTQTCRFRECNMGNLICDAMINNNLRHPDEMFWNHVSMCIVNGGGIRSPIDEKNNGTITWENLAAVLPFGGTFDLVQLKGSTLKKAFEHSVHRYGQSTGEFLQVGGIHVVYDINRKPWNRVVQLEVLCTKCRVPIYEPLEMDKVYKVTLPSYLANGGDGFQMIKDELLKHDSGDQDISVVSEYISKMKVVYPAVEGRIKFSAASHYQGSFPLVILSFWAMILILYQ
# [2] = target: T2, Ectonucleoside triphosphate diphosphohydrolase 1 (Homo sapiens, UniProt P49961); assay: Inhibition of CD39 (unknown origin)
# T2 sequence (P49961 whole entry): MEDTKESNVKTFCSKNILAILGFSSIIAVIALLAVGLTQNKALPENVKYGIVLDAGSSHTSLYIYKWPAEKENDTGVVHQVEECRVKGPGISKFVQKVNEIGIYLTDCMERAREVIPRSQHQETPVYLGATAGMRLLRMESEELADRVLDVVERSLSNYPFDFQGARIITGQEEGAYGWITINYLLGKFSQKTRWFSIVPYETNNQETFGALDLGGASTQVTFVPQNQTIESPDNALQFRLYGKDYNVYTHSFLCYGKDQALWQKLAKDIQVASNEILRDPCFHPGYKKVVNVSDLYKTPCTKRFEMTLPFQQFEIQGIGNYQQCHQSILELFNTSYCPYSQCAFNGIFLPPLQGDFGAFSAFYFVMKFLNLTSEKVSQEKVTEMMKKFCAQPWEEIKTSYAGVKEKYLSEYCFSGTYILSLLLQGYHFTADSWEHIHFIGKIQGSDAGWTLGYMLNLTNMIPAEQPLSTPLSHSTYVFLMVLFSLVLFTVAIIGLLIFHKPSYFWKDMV
# [3] = target: T3, Ectonucleoside triphosphate diphosphohydrolase 3 (Homo sapiens, UniProt O75355); assay: Inhibition of NTPDase 3 (unknown origin) expressed in CHO cells using ATP as substrate preincubated for 1 hr followed by substrate addition and measured after 50 mins by PiColorLock gold reagent based colorimetric assay; type: cell-based
# T3 sequence (O75355 whole entry): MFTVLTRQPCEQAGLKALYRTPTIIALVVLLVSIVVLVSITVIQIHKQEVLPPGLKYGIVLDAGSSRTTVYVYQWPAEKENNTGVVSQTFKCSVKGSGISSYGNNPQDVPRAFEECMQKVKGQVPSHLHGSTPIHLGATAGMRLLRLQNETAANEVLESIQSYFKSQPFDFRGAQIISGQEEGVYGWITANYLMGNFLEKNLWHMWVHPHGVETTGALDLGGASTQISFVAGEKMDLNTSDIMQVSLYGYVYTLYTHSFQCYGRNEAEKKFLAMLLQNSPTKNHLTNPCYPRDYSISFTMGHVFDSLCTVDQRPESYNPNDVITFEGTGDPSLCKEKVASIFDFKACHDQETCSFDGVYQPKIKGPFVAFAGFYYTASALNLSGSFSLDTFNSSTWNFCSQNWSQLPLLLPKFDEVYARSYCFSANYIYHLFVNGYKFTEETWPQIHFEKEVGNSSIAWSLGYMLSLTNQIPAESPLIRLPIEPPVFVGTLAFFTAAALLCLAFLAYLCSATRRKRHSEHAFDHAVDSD
# [4] = target: T4, Ectonucleoside triphosphate diphosphohydrolase 8 (Homo sapiens, UniProt Q5MY95); assay: Inhibition of NTPDase 8 (unknown origin) expressed in CHO cells using ATP as substrate preincubated for 1 hr followed by substrate addition and measured after 50 mins by PiColorLock gold reagent based colorimetric assay; type: cell-based
# T4 sequence (Q5MY95 whole entry): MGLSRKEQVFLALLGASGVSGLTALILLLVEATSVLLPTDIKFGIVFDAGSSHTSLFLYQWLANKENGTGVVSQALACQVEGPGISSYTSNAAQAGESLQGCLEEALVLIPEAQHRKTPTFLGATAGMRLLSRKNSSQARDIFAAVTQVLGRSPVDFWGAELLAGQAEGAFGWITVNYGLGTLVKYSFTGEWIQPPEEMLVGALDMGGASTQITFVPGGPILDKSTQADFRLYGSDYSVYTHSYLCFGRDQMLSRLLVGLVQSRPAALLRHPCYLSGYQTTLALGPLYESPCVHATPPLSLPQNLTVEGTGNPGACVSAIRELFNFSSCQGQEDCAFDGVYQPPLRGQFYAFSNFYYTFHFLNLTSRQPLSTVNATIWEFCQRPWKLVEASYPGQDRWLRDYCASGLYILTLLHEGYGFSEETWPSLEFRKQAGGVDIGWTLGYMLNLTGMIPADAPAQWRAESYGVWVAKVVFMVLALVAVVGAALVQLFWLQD
# [5] = Clearance in mouse at 0.5 mg/kg, iv; type: ADME, organism-based; conditions: in vivo
# [6] = Volume of distribution at steady state in mouse at 0.5 mg/kg, iv; type: ADME, organism-based; conditions: in vivo, read-out: Vdss
# [7] = Half life in mouse at 0.5 mg/kg, iv; type: ADME, organism-based; conditions: in vivo
# [8] = Fraction unbound in mouse plasma; type: ADME, cell-free; design: dose or concentration left out as unconfirmed
# [9] = Volume of distribution at steady state in Sprague-Dawley rat at 0.5 mg/kg, iv; type: ADME, organism-based; conditions: in vivo, read-out: Vdss
# [10] = Half life in Sprague-Dawley rat at 0.5 mg/kg, iv; type: ADME, organism-based; conditions: in vivo
# [11] = Clearance in dog at 0.5 mg/kg, iv; type: ADME, organism-based, Canis lupus familiaris; conditions: in vivo
# [12] = Volume of distribution at steady state in dog at 0.5 mg/kg, iv; type: ADME, organism-based, Canis lupus familiaris; conditions: in vivo, read-out: Vdss
# [13] = Half life in dog at 0.5 mg/kg, iv; type: ADME, organism-based, Canis lupus familiaris; conditions: in vivo
# [14] = Fraction unbound in dog plasma; type: ADME, cell-free, Canis lupus familiaris
# [15] = Volume of distribution at steady state in monkey at 0.5 mg/kg, iv; type: ADME, organism-based, Macaca mulatta; conditions: rhesus monkey, in vivo, read-out: Vdss
# [16] = Half life in monkey at 0.5 mg/kg, iv; type: ADME, organism-based, Macaca mulatta; conditions: rhesus monkey, in vivo
Structure (SMILES),IC50 [1],IC50 [2],IC50 [3],IC50 [4],clearance [5],Vd [6],half-life [7],fraction unbound [8],Vd [9],half-life [10],clearance [11],Vd [12],half-life [13],fraction unbound [14],Vd [15],half-life [16]
C[C@H](Nc1nc(Cl)nc2c1cnn2[C@@H]1O[C@H](COP(=O)(O)CP(=O)(O)O)[C@@H](O)[C@H]1O)c1ccccc1,0.00016 µM,> 10 µM,> 10 µM,> 10 µM,1.27 mL/min/kg,0.18 L/kg,2 h,0.029,0.12 L/kg,1.7 h,1.18 mL/min/kg,0.84 L/kg,13 h,0.187,0.096 L/kg,28 h
C[C@H](Nc1cc(Cl)nc2c1cnn2[C@@H]1O[C@H](COP(=O)(O)CP(=O)(O)O)[C@@H](O)[C@H]1O)c1ccccc1F,0.00066 µM,> 10 µM,> 10 µM,> 10 µM,0.417 mL/min/kg,0.12 L/kg,3.5 h,0.0089,0.12 L/kg,5.3 h,0.833 mL/min/kg,1.3 L/kg,22 h,0.083,0.099 L/kg,27 h
C[C@H](Nc1cc(Cl)nc2c1cnn2[C@@H]1O[C@H](COP(=O)(O)CP(=O)(O)O)[C@@H](O)[C@H]1O)c1ccc(F)cc1,0.00083 µM,> 10 µM,> 10 µM,> 10 µM,0.25 mL/min/kg,0.11 L/kg,6.5 h,0.0065,0.12 L/kg,9.6 h,0.567 mL/min/kg,0.63 L/kg,15 h,0.102,0.078 L/kg,34 h
